Laboratory results: ChEMBL document CHEMBL1159379, “Rhuschalcones II-VI, five new bichalcones from the root bark of Rhus pyroides” (2003)
Converted amounts (≈) assume the structure as drawn.

Tests used:
Format in all cases: functional
[1] = test system: KM12; experiment: Cytotoxicity against human KM12 cells; conditions: read-out: ED50 (the source's name)
[2] = test system: HCT-15; experiment: Cytotoxicity against human HCT15 cells; conditions: read-out: ED50 (the source's name)
[3] = test system: SW-620; experiment: Cytotoxicity against human SW620 cells; conditions: read-out: ED50 (the source's name)
[4] = test system: COLO 205; experiment: Cytotoxicity against human COLO205 cells; conditions: read-out: ED50 (the source's name)
[5] = test system: HCT-116; experiment: Cytotoxicity against human HCT116 cells; conditions: read-out: ED50 (the source's name)
[6] = test system: HT-29; experiment: Cytotoxicity against human HT-29 cells; conditions: read-out: ED50 (the source's name)
[7] = test system: SK-MEL-28; experiment: Cytotoxicity against human SK-MEL-28 cells; conditions: read-out: LC50 (the source's name)
[8] = test system: SK-MEL-5; experiment: Cytotoxicity against human SK-MEL-5 cells; conditions: read-out: LC50 (the source's name)
[9] = test system: UACC-62; experiment: Cytotoxicity against human UACC62 cells; conditions: read-out: LC50 (the source's name)

Row | SMILES | EC50 [1] | EC50 [2] | EC50 [3] | EC50 [4] | EC50 [5] | EC50 [6] | CC50 [7] | CC50 [8] | CC50 [9]
1 | COc1cc(O)c(C(=O)/C=C/c2ccc(O)cc2)cc1Oc1ccc(/C=C/C(=O)c2ccc(O)cc2O)cc1 [RHUSCHALCONE III] | 4 µg/mL (≈ 7.63 µM) | 4 µg/mL (≈ 7.63 µM) | 3 µg/mL (≈ 5.72 µM) | 4 µg/mL (≈ 7.63 µM) | 5 µg/mL (≈ 9.53 µM) | 3 µg/mL (≈ 5.72 µM) | – | – | –
2 | O=C(/C=C/c1ccc(Oc2cc(C(=O)/C=C/c3ccc(O)cc3)c(O)cc2O)cc1)c1ccc(O)cc1O [RHUSCHALCONE II] | 19 µg/mL (≈ 37.2 µM) | – | – | 15 µg/mL (≈ 29.4 µM) | 15 µg/mL (≈ 29.4 µM) | 14 µg/mL (≈ 27.4 µM) | – | – | –
3 | COc1cc(O)c(C(=O)/C=C/c2ccc(O)cc2)cc1Oc1ccc(C(=O)/C=C/c2ccc(O)cc2)c(O)c1 [RHUSCHALCONE IV] | – | – | – | 23 µg/mL (≈ 43.8 µM) | – | – | 4.6 µg/mL (≈ 8.77 µM) | 4.8 µg/mL (≈ 9.15 µM) | 4.6 µg/mL (≈ 8.77 µM)
4 | COc1ccc(C(=O)/C=C/c2ccc(Oc3cc(C(=O)/C=C/c4ccc(O)cc4)c(O)cc3OC)cc2)c(O)c1 [RHUSCHALCONE I] | 17 µg/mL (≈ 31.6 µM) | 51 µg/mL (≈ 94.7 µM) | 42 µg/mL (≈ 78 µM) | 11 µg/mL (≈ 20.4 µM) | 5 µg/mL (≈ 9.28 µM) | 3 µg/mL (≈ 5.57 µM) | – | – | –
5 | O=C(/C=C/c1ccc(O)c(-c2cc(C(=O)/C=C/c3ccc(O)cc3)c(O)cc2O)c1)c1ccc(O)cc1O [RHUSCHALCONE VI] | – | – | – | 24 µg/mL (≈ 47 µM) | 5 µg/mL (≈ 9.79 µM) | 10 µg/mL (≈ 19.6 µM) | – | – | –
